Reference: US5620890A, “Monoclonal antibodies to hygromycin B and the method of making the same” (The United States of America as represented by the …, priority 1995, dated 1997)

Columns and labels:
Assay type in all cases: binding, mouse
[1] = tested on: monoclonal antibody HB-13 (IgG1, kappa; hybridoma ATCC HB-12167); assay: Competitive indirect ELISA (CI-ELISA), solid-phase antigen HB-SMPB-S-BSA; details: for cross-reactivity with the HB-13 antibody: competitor concentration of 50 ppm; for average IC50: free competitor in CI-ELISA
Description: The supernatant culture fluid from the cloned hybridomas may also be screened to select for those producing antibodies having a high affinity for hygromycin B. Affinity may be measured using a variety of well known techniques, such as ELISA, RIA or equilibrium dialysis using labelled hygromycin B. Competitive indirect ELISA (CI-ELISA) is preferred, and is conducted at a final antibody concentration (dilution from tissue culture supernatant) to give 50% of maximal binding to a hygromycin B coated substrate or assay well. In accordance with this embodiment, the antibody containing supernatant is added to a hygromycin B conjugate-coated solid substrate such as the wells of an assay plate, together with a range of concentrations of free hygromycin B as a competitor. Following incubation and washing, bound antibody in the wells is determined in the same manner as the indirect-ELISA. Percent inhibition may be calculated as (1-B/Bo)×100 where B is the optical density (OD) of a well with a competitor and Bo is the mean OD of the wells without competitor (control). […] However, for even greater accuracy, the affinity may be alternatively measured at 50% inhibition (IC50).
A competitive indirect ELISA (CI-ELISA) was used to determine the sensitivity and specificity of the monoclonal antibodies for binding hygromycin B. Microtiter plates were coated with HB-SMPB-S-BSA (400 ng/well) and blocked with 3% non-fat milk solution as described above. After washing five times with 0.05% Tween 20 in distilled water, 100 μL of hygromycin B standard in assay buffer (0.1M Tris, 0.15M NaCl, 0.05% Tween 20, 1% BSA, pH 7.5) and 100 μL antiserum (diluted 1:60 in assay buffer) were added to each well and incubated for 90 min at 37° C. Unbound antibody was removed by washing five times with the 0.05% Tween 20-water solution. Next, 50 μL of goat anti-mouse IgG-peroxidase conjugate (1:500 dilution) was added to each well. After a 60 min incubation at 37° C., the plates were washed ten times with 0.05% Tween 20, and bound antibody-peroxidase conjugate was determined using ABTS. Absorbance was read at 405 nm.
Each point represents the average of 6 replicates. […] The mean intraassay IC50 coefficient of variation (CV) was 7.8% (n=3), while a mean interassay IC50 coefficient of variation of 7.0% (n=3) was observed. […] HB-13 was also characterized as to its ability to recognize related aminoglycoside antibiotics, including spiramycin, gentamicin, kanamycin, amikacin and tylosin.

[2] = tested on: monoclonal antibodies to hygromycin B obtained with the extended immunization protocol (including HB-3, HB-7, HB-13); assay: Competitive indirect ELISA (CI-ELISA); details: range over antibodies from extended immunization protocol
Description: (§1) The supernatant culture fluid from the cloned hybridomas may also be screened to select for those producing antibodies having a high affinity for hygromycin B. Affinity may be measured using a variety of well known techniques, such as ELISA, RIA or equilibrium dialysis using labelled hygromycin B. Competitive indirect ELISA (CI-ELISA) is preferred, and is conducted at a final antibody concentration (dilution from tissue culture supernatant) to give 50% of maximal binding to a hygromycin B coated substrate or assay well. […]
In the extended immunization schedule, female BALB/c mice were immunized with 75 μg ip injections every two weeks for a total of three injections. On day 35, the mice were bled so that serum titers and antibody specificities could be determined. […]
(§2) A competitive indirect ELISA (CI-ELISA) was used to determine the sensitivity and specificity of the monoclonal antibodies for binding hygromycin B. Microtiter plates were coated with HB-SMPB-S-BSA (400 ng/well) and blocked with 3% non-fat milk solution as described above. […] After a 60 min incubation at 37° C., the plates were washed ten times with 0.05% Tween 20, and bound antibody-peroxidase conjugate was determined using ABTS. Absorbance was read at 405 nm. […]

[3] = tested on: monoclonal antibodies to hygromycin B obtained with the short immunization protocol; assay: Competitive indirect ELISA (CI-ELISA); details: range over antibodies from short immunization protocol
Description: as §1
In the short immunization schedule, female BALB/c mice (6-8 weeks of age) were injected intraperitoneally (ip) with 75 μg of HB-SMPB-S-OVA (in 0.2 mL physiological saline/RIBI adjuvant). […] One week after the second injection, the mice were bled and serum titers were determined. […]
as §2

Compound | cross-reactivity with the HB-13 antibody [1] | also measured
NCC[C@H](O)C(=O)N[C@@H]1C[C@H](N)[C@@H](O[C@H]2O[C@H](CN)[C@@H](O)[C@H](O)[C@H]2O)[C@H](O)[C@H]1O[C@H]1O[C@H](CO)[C@@H](O)[C@H](N)[C@H]1O [amikacin] | None of these compounds were observed to cross-react | 
CNC1CC(N)C(O)C(OC2OC(CO)C(O)C3OC4(OC(C(N)CO)C(O)C(O)C4O)OC23)C1O (stereo not drawn) [hygromycin B] |  | IC50 [2]: 0.7-1 ppm; IC50 [3]: 10-100 ppm; average IC50 ([1]; each point average of 6 replicates): 76.2 ng/well; average IC50 ([1]; same value expressed as ppm): 0.762 ppm
NC[C@H]1O[C@H](O[C@H]2[C@H](O)[C@@H](O[C@H]3O[C@H](CO)[C@@H](O)[C@H](N)[C@H]3O)[C@H](N)C[C@@H]2N)[C@H](O)[C@@H](O)[C@@H]1O [kanamycin] | None of these compounds were observed to cross-react | 
CC[C@H]1OC(=O)C[C@@H](O)[C@H](C)[C@@H](O[C@@H]2O[C@H](C)[C@@H](O[C@H]3C[C@@](C)(O)[C@@H](O)[C@H](C)O3)[C@H](N(C)C)[C@H]2O)[C@@H](CC=O)C[C@@H](C)C(=O)/C=C/C(C)=C/[C@@H]1CO[C@@H]1O[C@H](C)[C@@H](O)[C@@H](OC)[C@H]1OC [tylosin] | None of these compounds were observed to cross-react | 
gentamicin | None of these compounds were observed to cross-react | 
spiramycin | None of these compounds were observed to cross-react | 
